Test results reported in ChEMBL document CHEMBL1201862, “PubChem BioAssay data set” (2004).
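96-well plates; 48 h exposure; 5 concentrations. Endpoints by linear interpolation between flanking doses. Not reached: highest tested concentration assigned. Here, GI50 denotes the concentration required for 50% inhibition of growth.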 Active and inactive are the calls of the source. Rule as the data show it: active = GI50 up to about 1.1 µM and inactive = higher.

Key:
Assay in all cases: NCI-60 cell line screen, 48 h
786-0 = test system: 786-0
A498 = test system: A498
CAKI-1 = test system: CAKI-1
EKVX = test system: EKVX
HCT-15 = test system: HCT-15
HT-29 = test system: HT-29
LOX IMVI = test system: LOX IMVI
M14 = test system: M14
MDA-N = test system: MDA-N
Malme-3M = test system: Malme-3M
NCI/ADR-RES = test system: NCI/ADR-RES
OVCAR-8 = test system: OVCAR-8
RXF 393 = test system: RXF 393
SF-268 = test system: SF-268
SF-295 = test system: SF-295
SK-MEL-2 = test system: SK-MEL-2
SK-MEL-5 = test system: SK-MEL-5
SK-OV-3 = test system: SK-OV-3
Hs-578T = test system: Hs-578T

SMILES | GI50 (786-0) | GI50 (A498) | GI50 (CAKI-1) | GI50 (EKVX) | GI50 (HCT-15) [µM] | GI50 (HT-29) | GI50 (LOX IMVI) | GI50 (M14) | GI50 (MDA-N) | GI50 (Malme-3M) | GI50 (NCI/ADR-RES) | GI50 (OVCAR-8) | GI50 (RXF 393) | GI50 (SF-268) | GI50 (SF-295) | GI50 (SK-MEL-2) | GI50 (SK-MEL-5) | GI50 (SK-OV-3) | GI50 (Hs-578T)
COC(=O)[C@@](C)(COC(=O)C(C)(C)C)NC(=O)OC(C)(C)C | > 100 µM (inactive) | > 100 µM (inactive) | > 100 µM (inactive) | > 100 µM (inactive) | > 100 | > 100 µM (inactive) | > 100 µM (inactive) | > 100 µM (inactive) | > 100 µM (inactive) | > 100 µM (inactive) | > 100 µM (inactive) | > 100 µM (inactive) | > 100 µM (inactive) | > 100 µM (inactive) | > 100 µM (inactive) | > 100 µM (inactive) | > 100 µM (inactive) | > 100 µM (inactive) | –
C=C1C(=O)O[C@@H]2O[C@@]3(C)CC[C@H]4[C@H](C)CC[C@@H]1[C@@]24O3 [DEOXYARTEMISITENE] | 13.6 µM (inactive) | 34.6 µM (inactive) | 15.7 µM (inactive) | 13.3 µM (inactive) | 10.9 | 17.8 µM (inactive) | 16.1 µM (inactive) | 24.9 µM (inactive) | 13.7 µM (inactive) | 14.2 µM (inactive) | – | – | 14.4 µM (inactive) | 28.1 µM (inactive) | 27.1 µM (inactive) | 18.2 µM (inactive) | 19.1 µM (inactive) | 36.1 µM (inactive) | 39 µM (inactive)
Cc1cccc(Nc2cnc(N)nc2N)c1 | > 100 µM (inactive) | > 100 µM (inactive) | > 100 µM (inactive) | > 100 µM (inactive) | > 100 | > 100 µM (inactive) | > 100 µM (inactive) | > 100 µM (inactive) | > 100 µM (inactive) | > 100 µM (inactive) | > 100 µM (inactive) | > 100 µM (inactive) | 98.9 µM (inactive) | – | > 100 µM (inactive) | > 100 µM (inactive) | > 100 µM (inactive) | > 100 µM (inactive) | –
NC1CC(=O)c2c1sc(Cl)c2Cl (stereo not drawn) | > 100 µM (inactive) | > 100 µM (inactive) | > 100 µM (inactive) | > 100 µM (inactive) | > 100 | > 100 µM (inactive) | – | > 100 µM (inactive) | > 100 µM (inactive) | > 100 µM (inactive) | > 100 µM (inactive) | > 100 µM (inactive) | > 100 µM (inactive) | > 100 µM (inactive) | – | > 100 µM (inactive) | > 100 µM (inactive) | > 100 µM (inactive) | –
CC(C)(C)OC(=O)NC(CS(=O)(=O)O)C(=O)O (stereo not drawn) | > 100 µM (inactive) | > 100 µM (inactive) | > 100 µM (inactive) | > 100 µM (inactive) | > 100 | > 100 µM (inactive) | > 100 µM (inactive) | > 100 µM (inactive) | > 100 µM (inactive) | > 100 µM (inactive) | > 100 µM (inactive) | > 100 µM (inactive) | > 100 µM (inactive) | > 100 µM (inactive) | > 100 µM (inactive) | > 100 µM (inactive) | > 100 µM (inactive) | > 100 µM (inactive) | –
COc1cccc(-c2cccc(SC)n2)n1 | 28.8 µM (inactive) | – | 60 µM (inactive) | 17.7 µM (inactive) | 27 | 21.8 µM (inactive) | 33.1 µM (inactive) | 24 µM (inactive) | 29.6 µM (inactive) | – | 28.4 µM (inactive) | 35.6 µM (inactive) | 18.7 µM (inactive) | – | 34.4 µM (inactive) | 36.3 µM (inactive) | 20.5 µM (inactive) | 56.5 µM (inactive) | –
C=CCOC1OC(CO[Si](C)(C)C(C)(C)C)C(OCc2ccccc2)C(OCc2ccccc2)C1OCc1ccccc1 (stereo not drawn) | 10.5 µM (inactive) | – | 54.5 µM (inactive) | > 100 µM (inactive) | 88.3 | 79.1 µM (inactive) | 25.9 µM (inactive) | 68.1 µM (inactive) | > 100 µM (inactive) | 27.5 µM (inactive) | 36.6 µM (inactive) | 37.5 µM (inactive) | – | 40.5 µM (inactive) | 22.1 µM (inactive) | 47.8 µM (inactive) | 29.5 µM (inactive) | > 100 µM (inactive) | 45.2 µM (inactive)
